In US10772807B2, “Lipid microcapsules preferably comprising a retinoid, and composition containing same, method for the production thereof, and use of same in dermatology” (GALDERMA RESEARCH & DEVELOPMENT, priority 2013, dated 2020) one finds Maximum solubility and Stability data, which are given here for one molecule.

Each structure is given as a SMILES string.

The nature of data set [1]: Maximum solubility of Trifarotene in various oily phases. It counts as physicochemical.
Data set [2] can be described thus: Chemical stability of Trifarotene in oily phases (HPLC-UV). It counts as physicochemical. The method, then:
The stability of the active agent was evaluated by liquid chromatography coupled to a UV detector (HPLC-UV).

Where [3] appears, read: in Caprylic/capric acid triglycerides (Miglyol ® 812N).
Where [4] appears, read: in Diisopropyl adipate (Schercemol Dia Ester).
[5] abbreviates: in Macrogol oleate (Labrafil ® M1944CS).
Setting [6] is: in Octyldodecanol (Eutanol ® G).
The mark [7] stands for this setting: in PPG-15 stearyl ether (Arlamol PS11E-LQ).
[8] abbreviates: in Propylene glycol dicaprylate/dicaprate (Myritol ® PC).
Where [9] appears, read: in Propylene glycol monolaurate (Lauroglycol ® FCC).

For the molecule `CC(C)(C)c1cc(-c2cc(-c3ccc(C(=O)O)cc3)ccc2OCCO)ccc1N1CCCC1` [Trifarotene, 3″-tert-butyl-4′-(2-hydroxyethoxy)-4″-pyrrolidin-1-yl-[1,1′;3′,1″]-terphenyl-4-carboxylic acid], the Maximum solubility in data set [1] (in Alkyl (C12-15) benzoate (Crodamol AB)) is reported as 0.026 % w/w; in data set [1] (setting [3]), 0.019 % w/w; in data set [1] (setting [4]), 0.297 % w/w; in data set [1] (setting [5]), 0.156 % w/w; in data set [1] (in Mineral oil) it was 0.0001 % w/w; in data set [1] (setting [6]), 0.137 % w/w. The Maximum solubility in data set [1] (setting [7]) came out at 0.292 % w/w; in data set [1] (setting [8]), 0.069 % w/w; in data set [1] (in Propylene glycol monocaprylate (Capryol ® 90)), 0.802 % w/w; in data set [1] (setting [9]) it was 0.296 % w/w; in data set [1] (in Sweet almond oil), 0.011 % w/w. Also, the Stability is 6 months AT/40 °C in data set [2] (setting [3]); 6 months AT/40 °C in data set [2] (setting [4]); 6 months AT/40 °C in data set [2] (setting [5]); “Unstable” in data set [2] (setting [6]); 6 months AT/40 °C in data set [2] (setting [7]); “Unstable” in data set [2] (setting [8]). The Stability in data set [2] (in Propylene glycol monocaprylate (Capryol ® 90), AT = ambient temperature) is 6 months AT/40 °C; in data set [2] (setting [9]), 6 months AT/40 °C; in data set [2] (in Sweet almond oil) it was 6 months AT/40 °C.
